{"source": "patent US7897620B2", "about": "“Methods of using anti-inflammatory compounds” (Cambridge Enterprise Limited, priority 2007, dated 2011)", "key": {"[1]": {"test_system": "lung leukocyte recruitment and T-helper cell polarisation", "assay": "Ovalbumin-induced lung inflammation model of asthma (BAL leukocyte count, splenocyte Th1/Th2 ratio)", "format": "in vivo, Brown Norway rat", "conditions": "rat, 0.3 mg/kg daily oral", "protocol": "Adult Brown Norway rats (200-300 g body weight; n=10 per group) were sensitised by a single intraperitoneal injection of 0.1 mg Ovalbumin on day 0. Each rat then received an intratracheal challenge with a solution of 1% ovalbumin (w/v) on day 8, and with 2% ovalbumin (w/v) on days 15, 18 and 21. The animals were then sacrificed 3 hours after the final challenge on day 21. Note that ovalbumin (Sigma; purest available grade) was made endotoxin-free by passage over EndoTrap™ Red columns (purchased from Cambrex; used in accordance with the manufacturer's instructions), and the endotoxin level was confirmed as <5 EU/mg protein using the LAL assay (QCL-1000™; Cambrex; performed in accordance with the manufacturer's instructions; 1 mg of standard endotoxin contains ˜900,000 EU/mg). […]\nOn sacrifice, total lung leukocyate recruitment was assessed by performing a broncheoalveolar lavage (BAL) using 4 lots of 3 ml sterile phosphate-buffered saline introduced through a tracheal cannula. For each animal, the BAL washes were combined, and the total cell population counted (using a haemocytometer). […]\nThe spleen was also removed from each […] and placed in RPMI+10% FCS+antibiotics. […] The resulting cell suspension was then centrifuged (328 g; 5 mins) and washed in RPMI+10% FCS+antibiotics, before being resuspended in fresh media and counted using a haemocytometer. […]"}, "[2]": {"assay": "Water solubility (observation)", "format": "physicochemical"}}}
{"smiles": "CC(C)(C)C(=O)N[C@H]1CCCNC1=O", "note": "[Compound (I′), 3-(2′,2′-dimethylpropanoylamino)-tetrahydropyridin-2-one]", "values": [{"measurement": "Th2 polarisation (Th1/Th2 ratio of CD4+ splenocytes)", "setting": "[1]", "result": "completely abolishes the Th2 polarisation"}, {"measurement": "water solubility", "setting": "[2]", "result": "extremely water soluble"}]}
